Consider 30 compounds from patent US20100168102A9, “Amide Derivatives as Kinase Inhibitors” (Devgen NV, priority 2005, published 2010).

Experiment [1] addresses T1, PKC epsilon (Homo sapiens, UniProt Q02156).
T1 construct: purchased Invitrogen P2282
T1 sequence (Q02156 1-737): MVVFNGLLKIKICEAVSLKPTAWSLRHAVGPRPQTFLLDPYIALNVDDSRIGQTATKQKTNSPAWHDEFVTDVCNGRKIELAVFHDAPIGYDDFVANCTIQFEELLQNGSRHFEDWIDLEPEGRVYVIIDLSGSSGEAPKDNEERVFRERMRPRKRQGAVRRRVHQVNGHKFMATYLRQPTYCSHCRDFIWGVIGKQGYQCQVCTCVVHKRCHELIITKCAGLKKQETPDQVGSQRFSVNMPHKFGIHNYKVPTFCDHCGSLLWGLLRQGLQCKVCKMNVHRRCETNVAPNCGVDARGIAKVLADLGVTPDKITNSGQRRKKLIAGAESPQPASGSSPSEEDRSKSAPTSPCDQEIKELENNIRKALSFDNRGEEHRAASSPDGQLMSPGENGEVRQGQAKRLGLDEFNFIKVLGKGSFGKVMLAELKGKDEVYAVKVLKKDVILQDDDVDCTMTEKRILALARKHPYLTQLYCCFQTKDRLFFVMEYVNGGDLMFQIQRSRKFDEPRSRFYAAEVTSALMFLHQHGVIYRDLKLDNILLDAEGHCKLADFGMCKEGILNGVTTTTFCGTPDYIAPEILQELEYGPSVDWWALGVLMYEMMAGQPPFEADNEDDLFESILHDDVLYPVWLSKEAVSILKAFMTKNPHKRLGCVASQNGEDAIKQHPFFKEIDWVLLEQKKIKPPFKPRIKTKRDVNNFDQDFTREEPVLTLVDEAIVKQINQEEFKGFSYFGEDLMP
The experiment in a line: Biochemical assay for PKC epsilon (fluorescence polarization, Protein Kinase C Assay Kit, Red). The following applies: read-out: IC50 μM PKCε. Put shortly:
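Read-out was fluorescence-polarization competition between phosphorylated substrate and a rhodamine PKC tracer for an anti-phosphoserine antibody, added with EDTA stop after an 80 min room-temperature kinase reaction with ATP and protein substrate (Mg2+/Ca2+ buffer). Enzyme (10 ng/ml final) was preincubated with compound for 30 min.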

In experiment [2] the target is T2, human ROCKα/ROCKII mix (Homo sapiens, UniProt O75116).
T2 construct: purchased Upstate Biotechnology 14-451
T2 sequence (O75116 11-552 limits assumed): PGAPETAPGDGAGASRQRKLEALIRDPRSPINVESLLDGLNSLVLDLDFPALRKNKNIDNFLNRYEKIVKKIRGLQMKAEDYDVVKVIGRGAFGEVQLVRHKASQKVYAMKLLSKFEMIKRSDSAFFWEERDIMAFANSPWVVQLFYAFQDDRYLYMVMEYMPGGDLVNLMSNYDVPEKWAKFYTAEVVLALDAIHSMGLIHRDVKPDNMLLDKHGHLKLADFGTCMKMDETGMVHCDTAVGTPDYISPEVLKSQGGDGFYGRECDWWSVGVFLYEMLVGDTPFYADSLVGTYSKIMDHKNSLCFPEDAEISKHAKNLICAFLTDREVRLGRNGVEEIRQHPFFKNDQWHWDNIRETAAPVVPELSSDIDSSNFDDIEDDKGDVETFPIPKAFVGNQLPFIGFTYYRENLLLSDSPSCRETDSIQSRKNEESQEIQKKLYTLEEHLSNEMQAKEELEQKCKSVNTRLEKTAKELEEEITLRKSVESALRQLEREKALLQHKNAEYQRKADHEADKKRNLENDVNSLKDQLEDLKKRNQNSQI
The experiment in a line: Biochemical assay for ROCK (fluorescence polarization, ROCK IMAP Kit).

The mark [3] stands for this setting: Table 2, compounds of Formula XIII.
The mark [4] stands for this setting: compounds of Formula XIV, Table 3.

Like-named read-outs stand apart in the source and are kept apart here.

Regarding `CC(C)(C(=O)N1CCCC1C(N)c1ccc(C(=O)Nc2ccncc2)cc1)c1ccc(F)c(Cl)c1` (stereo not drawn) [Compound 606, 4-(Amino-{1-[2-(3-chloro-4-fluoro-phenyl)-2-methyl-propionyl]-pyrrolidin-2-yl}-methyl)-N-pyridin-4-yl-benzamide], the IC50 in experiment [1] and in experiment [2] was 0.5 to 5 µM throughout.

For `NC(CNC(=O)c1ccc(Cl)cc1)c1ccc(C(=O)Nc2ccncc2)cc1` (stereo not drawn) [Compound 90, 4-[1-amino-2-(4-chloro-benzoylamino)-ethyl]-N-pyridin-4-yl-benzamide], the IC50 lay in the range of 5 to 50 µM in experiment [1] (setting [3]) and 0.5 to 5 µM in experiment [2] (setting [3]).

With `NC(c1ccc(C(=O)Nc2ccncc2)cc1)C1CCCN1C(=O)Cc1ccc(Cl)cc1F` (stereo not drawn) [Compound 598, 4-(Amino-{1-[2-(4-chloro-2-fluoro-phenyl)-acetyl]-pyrrolidin-2-yl}-methyl)-N-pyridin-4-yl-benzamide], the IC50 in experiment [1] lay within 5 to 50 µM; in experiment [2], 0.5 to 5 µM.

As to `COc1cccc(CC(=O)N(C)CC(N)c2ccc(C(=O)Nc3ccncc3)cc2)c1` (stereo not drawn) [Compound 426, 4-(1-Amino-2-{[2-(3-methoxy-phenyl)-acetyl}-methyl-amino}-ethyl)-N-pyridin-4-yl-benzamide], the IC50 in experiment [1] lay within 5 to 50 µM; in experiment [2], 0.05 to 0.5 µM.

Consider `NC(CNC(=O)c1ccccc1Oc1ccccc1)c1ccc(C(=O)Nc2ccncc2)cc1` (stereo not drawn) [Compound 76, 4-[1-amino-2-(2-phenoxy-benzoylamino)-ethyl]-N-pyridin-4-yl-benzamide], for which the IC50 in experiment [1] (setting [3]) and in experiment [2] (setting [3]) was 0.5 to 5 µM in each case.

In the case of `NC(CNC(=O)CC(c1ccccc1)c1ccccc1)c1ccc(C(=O)Nc2ccncc2)cc1` (stereo not drawn) [Compound 160, 4-[1-Amino-2-(3,3-diphenyl-propionylamino)-ethyl]-N-pyridin-4-yl-benzamide], the values for the IC50 in experiment [1] (setting [3]) and in experiment [2] (setting [3]) were 5 to 50 µM and 0.05 to 0.5 µM, respectively.

In the case of `NC(CNC(=O)C1(c2cccs2)CC1)c1ccc(C(=O)Nc2ccncc2)cc1` (stereo not drawn) [Compound 349, 4-{1-Amino-2-[(1-thiophen-2-yl-cyclopropanecarbonyl)-amino]-ethyl}-N-pyridin-4-yl-benzamide], the IC50 in experiment [1] (setting [3]) and in experiment [2] (setting [3]) was 0.05 to 0.5 µM each time.

In the case of `Cc1ccc(CC(=O)N2CCCC2C(N)c2ccc(C(=O)Nc3ccncc3)cc2)cc1` (stereo not drawn) [Compound 525, 4-{Amino-[1-(2-p-tolyl-acetyl)-pyrrolidin-2-yl]-methyl}-N-pyridin-4-yl-benzamide], the IC50 in experiment [1] and in experiment [2] was 0.5 to 5 µM throughout.

Regarding “4-[1-amino-2-(cyclopropyl- methylcarbamoyl)-ethyl]-N- pyridin-4-yl-benzamide [Compound 171]”, the IC50 fell in the range of 0.5 to 5 µM in experiment [1] (setting [4]) and 0.05 to 0.5 µM in experiment [2] (setting [4]).

For the compound “4-[1-Amino-2-(2-methoxy- benzylcarbamoyl)-ethyl]- N-pyridin-4-yl-benzamide [Compound 236]”, the values for the IC50 in experiment [1] (setting [4]) and in experiment [2] (setting [4]) were 0.5 to 5 µM and 0.05 to 0.5 µM, respectively.

As to “4-(1-Amino-2-{[2-(3-chloro- phenyl)-acetyl]-methyl- amino}-ethyl)- N-pyridin-4-yl-benzamide [Compound 459]”, the IC50 in experiment [1] was 5 to 50 µM; in experiment [2], 0.5 to 5 µM.

For the compound `CN(CC(N)c1ccc(C(=O)Nc2ccncc2)cc1)C(=O)C1(c2ccc(F)c(F)c2)CC1` (stereo not drawn) [Compound 486, 4-(1-Amino-2-{[1-(3,4-difluoro-phenyl)-cyclopropanecarbonyl]-methyl-amino}-ethyl)-N-pyridin-4-yl-benzamide], the IC50 in experiment [1] and in experiment [2] was 0.5 to 5 µM throughout.

Turning to `CC(Cc1ccc(Cl)cc1)NC(=O)CC(N)c1ccc(C(=O)Nc2ccncc2)cc1` (stereo not drawn) [Compound 300, 4-{1-Amino-2-(2-(4-chloro-phenyl)-1-methyl-ethylcarbamoyl]-ethyl}-N-pyridin-4-yl-benzamide], the figures for the IC50 in experiment [1] (setting [4]) and in experiment [2] (setting [4]) were 0.5 to 5 µM and 0.05 to 0.5 µM, respectively.

With `CC(C)(NC(=O)CC(N)c1ccc(C(=O)Nc2ccncc2)cc1)c1ccccc1` (stereo not drawn) [Compound 218, 4-[1-Amino-2-(1-methyl-1-phenyl-ethylcarbamoyl)-ethyl]-N-pyridin-4-yl-benzamide], the IC50 in experiment [1] (setting [4]) was 0.5 to 5 µM; in experiment [2] (setting [4]) it was 0.05 to 0.5 µM.

“4-[1-Amino-2-(1-(R)-p-tolyl- propylcarbamoyl)-ethyl]-N- pyridin-4-yl-benzamide [Compound 220]”: the half-inhibitory concentration (IC50) in experiment [1] (setting [4]) lay in the range of 0.5 to 5 µM; in experiment [2] (setting [4]), 0.05 to 0.5 µM.

As for `NC(CNC(=O)Cc1cccc(Cl)c1)c1ccc(C(=O)Nc2ccncc2)cc1` (stereo not drawn) [Compound 147, 4-{1-Amino-2-[2-(3-chloro-phenyl)-acetylamino]-ethyl}-N-pyridin-4-yl-benzamide], the IC50 in experiment [1] (setting [3]) lay in the range of 0.5 to 5 µM; in experiment [2] (setting [3]), 0.05 to 0.5 µM.

As to `Cc1ccc(C(=O)NCC(N)c2ccc(C(=O)Nc3ccncc3)cc2)cc1` (stereo not drawn) [Compound 86, 4-[1-amino-2-(4-methyl-benzoylamino)-ethyl]-N-pyridin-4-yl-benzamide], the IC50 in experiment [1] (setting [3]) is 5 to 50 µM; in experiment [2] (setting [3]) it was 0.5 to 5 µM.

Turning to “4-(1-Amino-2-{[2-(4-chloro- phenyl)-3-methyl-butyryl]- methyl- amino}-ethyl)- N-pyridin-4-yl-benzamide [Compound 461]”, the IC50 in experiment [1] is 5 to 50 µM; in experiment [2], 0.5 to 5 µM.

For `NC(CC(=O)NC1CCCc2ccccc21)c1ccc(C(=O)Nc2ccncc2)cc1` (single isomer, unassigned) [Compound 221], the IC50 in experiment [1] (setting [4]) and in experiment [2] (setting [4]) was 0.05 to 0.5 µM in each case.

Turning to `NC(c1ccc(C(=O)Nc2ccncc2)cc1)C1CCCN1C(=O)C1(c2ccc(Cl)cc2F)CC1` (stereo not drawn) [Compound 605, 4-(Amino-{1-[1-(4-chloro-2-fluoro-phenyl)-cyclopropanecarbonyl]-pyrrolidin-2-yl}-methyl)-N-pyridin-4-yl-benzamide], the IC50 in experiment [1] and in experiment [2] was 0.5 to 5 µM in each case.

On to `NC(CC(=O)NCc1cccc(Cl)c1Cl)c1ccc(C(=O)Nc2ccncc2)cc1` (stereo not drawn) [Compound 253, 4-[1-Amino-2-(2,3-dichloro-benzylcarbamoyl)-ethyl]-N-pyridin-4-yl-benzamide], for which the IC50 in experiment [1] (setting [4]) and in experiment [2] (setting [4]) was 0.05 to 0.5 µM each time.

For the compound “Chroman-4-carboxylic acid {2-amino-2-[4-(pyridin-4- ylcarbamoyl)-phenyl]-ethyl}- methyl-amide [Compound 514]”, the figures for the IC50 in experiment [1] and in experiment [2] were 5 to 50 µM and 0.5 to 5 µM, respectively.

Regarding `CC(C)(C)NC(=O)NCC(N)c1ccc(C(=O)Nc2ccncc2)cc1` (stereo not drawn) [Compound 3, 4-[1-amino-2-(3-tert-butyl-ureido)-ethyl]-N-pyridin-4-yl-benzamide], the IC50 in experiment [1] and in experiment [2] was 0.5 to 5 µM each time.

As to `NC(c1ccc(C(=O)Nc2ccncc2)cc1)C1CCCN1C(=O)Cc1ccc(Cl)cc1` (stereo not drawn) [Compound 561, 4-(Amino-{1-[2-(4-chloro-phenyl)-acetyl]-pyrrolidin-2-yl}-methyl)-N-pyridin-4-yl-benzamide], the IC50 in experiment [1] and in experiment [2] was 0.5 to 5 µM throughout.

In the case of `COc1cc(CCNC(=O)CC(N)c2ccc(C(=O)Nc3ccncc3)cc2)cc(OC)c1` (stereo not drawn) [Compound 294, 4-{1-Amino-2-[2-(3,5-dimethoxy-phenyl)-ethylcarbamoyl]-ethyl}-N-pyridin-4-yl-benzamide], the results for the IC50 in experiment [1] (setting [4]) and in experiment [2] (setting [4]) were 5 to 50 µM and 0.05 to 0.5 µM, respectively.

`COc1cccc(CC(=O)NCC(N)c2ccc(C(=O)Nc3ccncc3)cc2)c1` (stereo not drawn) [Compound 139, 4-{1-amino-2-[2-(3-methoxy-phenyl)-acetylamino]-ethyl}-N-pyridin-4-yl-benzamide]: the IC50 in experiment [1] (setting [3]) was 0.5 to 5 µM; in experiment [2] (setting [3]) it was 0.05 to 0.5 µM.

For the compound “4-[1-Amino-2-(3,4-dichloro- 6-methyl-benzylcarbamoyl)- ethyl}-N-pyridin-4-yl- benzamide [Compound 254]”, the IC50 in experiment [1] (setting [4]) lay in the range of 0.5 to 5 µM; in experiment [2] (setting [4]) it was 0.05 to 0.5 µM.

On to `N#CCCN(C(=O)CC(N)c1ccc(C(=O)Nc2ccncc2)cc1)C1CC1` (stereo not drawn) [Compound 178, 4-{1-amino-2-[(2-cyano-ethyl)-cyclopropyl-carbamoyl]-ethyl}-N-pyridin-4-yl-benzamide], for which the IC50 in experiment [1] (setting [4]) was 5 to 50 µM; in experiment [2] (setting [4]) it was 0.5 to 5 µM.

For the compound `NC(CNC(=O)C1CCc2ccccc2C1)c1ccc(C(=O)Nc2ccncc2)cc1` (stereo not drawn) [Compound 164, 1,2,3,4-Tetrahydro-naphtalene-2-carboxylic acid {2-amino-2-[4-(pyridin-4-ylcarbamoyl)-phenyl]-ethyl}-amide], the IC50 in experiment [1] (setting [3]) and in experiment [2] (setting [3]) was 0.5 to 5 µM each time.

Consider `NC(CNC(=O)c1ccc2ccccc2c1)c1ccc(C(=O)Nc2ccncc2)cc1` (stereo not drawn) [Compound 70], for which the IC50 in experiment [1] (setting [3]) was in the range of 5 to 50 µM; in experiment [2] (setting [3]), 0.05 to 0.5 µM.
